Results published in ChEMBL document CHEMBL1133951, “New anti-malarial flavonol glycoside from Hydrangeae Dulcis Folium” (2001).

Tests used:
[1] = system: Plasmodium falciparum; assay: Antimalarial potency against Plasmodium falciparum at 0.05 ng/mL.; assay type: functional
[2] = system: Plasmodium falciparum; assay: Anti-malarial potency against Plasmodium falciparum at 0.1 ng/ml; assay type: functional
[3] = system: Plasmodium falciparum; assay: Antimalarial potency against Plasmodium falciparum at 0.5 ng/mL.; assay type: functional
[4] = system: Plasmodium falciparum; assay: Anti-malarial potency against Plasmodium falciparum at 5 ng/ml; assay type: functional
[5] = system: KB 3-1; assay: Cytotoxic activity against KB 3-1 cells at 5 ug/mL; Not detected.; assay type: functional, cell-based; details: Homo sapiens
[6] = system: Plasmodium falciparum; assay: Inhibitory ratio on proliferation of Plasmodium falciparum at 0.1 uM; assay type: functional
[7] = system: KB 3-1; assay: Cytotoxic activity against KB 3-1 cells at 5 ug/m; Not detected.; assay type: functional, cell-based; details: Homo sapiens

SMILES	Activity [1]	Activity [2]	Activity [3]	Activity [4]	Cytotoxicity [5]	Inhibitory ratio [6]	Cytotoxicity [7]
COc1cc(-c2oc3cc(O)cc(O)c3c(=O)c2O[C@H]2O[C@H](CO[C@@H]3O[C@@H](C)[C@H](O)[C@@H](O)[C@H]3O)[C@H](O)[C@@H](O)[C@H]2O)ccc1O	10.8%	24.5%	44.5%	41.5%	–	–	–
O=c1c(O[C@@H]2O[C@H](CO)[C@H](O)[C@@H](O)[C@H]2O)c(-c2ccc(O)c(O)c2)oc2cc(O)cc(O)c12	31.1%	27.7%	31.7%	36.8%	–	–	–
C[C@@H]1O[C@@H](OC[C@H]2O[C@@H](Oc3c(-c4ccc(O)cc4)oc4cc(O)cc(O)c4c3=O)[C@H](O[C@H]3OC[C@H](O)[C@@H](O)[C@@H]3O)[C@@H](O)[C@H]2O)[C@H](O)[C@H](O)[C@H]1O	37.6%	54.2%	68.7%	58.9%	Not detected	–	–
C[C@@H]1O[C@@H](Oc2c(-c3ccc(O)c(O)c3)oc3cc(O)cc(O)c3c2=O)[C@H](O)[C@H](O)[C@H]1O [QUERCITRIN]	34%	39.4%	36%	32.9%	–	–	–
C=C[C@H]1CN2CC[C@H]1C[C@H]2[C@H](O)c1ccnc2ccc(OC)cc12 [QUININE]	–	–	–	–	–	45.3	–
C[C@@H]1O[C@@H](OC[C@H]2O[C@H](Oc3c(-c4ccc(O)c(O)c4)oc4cc(O)cc(O)c4c3=O)[C@H](O)[C@H](O)[C@H]2O)[C@H](O)[C@H](O)[C@H]1O	38.7%	51.6%	56%	56.4%	Not detected	–	–
O=c1c(O[C@@H]2O[C@H](CO[C@@H]3OC[C@@H](O)[C@H](O)[C@H]3O)[C@H](O)[C@H](O)[C@H]2O)c(-c2ccc(O)cc2)oc2cc(O)cc(O)c12	22.4%	43.1%	61.9%	56.2%	–	–	Not detected
C[C@@H]1O[C@@H](OC[C@H]2O[C@H](Oc3c(-c4ccc(O)cc4)oc4cc(O)cc(O)c4c3=O)[C@H](O)[C@H](O)[C@H]2O)[C@H](O)[C@H](O)[C@H]1O	30.5%	49.1%	60.1%	50.9%	–	–	–
C[C@@H]1O[C@@H](Oc2c(-c3ccc(O)c(O)c3)oc3cc(O)cc(O)c3c2=O)[C@H](O)[C@H](O)[C@H]1O[C@@H]1O[C@H](CO)[C@H](O)[C@@H](O)[C@H]1O	25%	32.8%	43.4%	48.1%	–	–	–
CC(=O)OC[C@H]1O[C@@H](O[C@@H]2[C@@H](O)[C@@H](O)[C@H](Oc3c(-c4ccc(O)c(O)c4)oc4cc(O)cc(O)c4c3=O)O[C@H]2C)[C@H](O)[C@H](O)[C@H]1O	27.4%	40.3%	52.1%	65.4%	Not detected	–	–
